The record followed here is ChEMBL document CHEMBL1137119, “Design and synthesis of 3-(2-pyridyl)pyrazolo[1,5-a]pyrimidines as potent CRF1 receptor antagonists” (Bioorg Med Chem Lett, 2004).

Broadly, the Ki is a dissociation constant, usually derived from enzyme kinetics or from competition with a known ligand. Broadly, the IC50 is the point on the concentration scale where inhibition reaches its midpoint. The low end stands for higher potency, the high end for lower potency.

The first assay has as its target T1, Corticotropin-releasing factor receptor 1 (Homo sapiens, UniProt P34998).
T1 sequence (P34998 whole entry): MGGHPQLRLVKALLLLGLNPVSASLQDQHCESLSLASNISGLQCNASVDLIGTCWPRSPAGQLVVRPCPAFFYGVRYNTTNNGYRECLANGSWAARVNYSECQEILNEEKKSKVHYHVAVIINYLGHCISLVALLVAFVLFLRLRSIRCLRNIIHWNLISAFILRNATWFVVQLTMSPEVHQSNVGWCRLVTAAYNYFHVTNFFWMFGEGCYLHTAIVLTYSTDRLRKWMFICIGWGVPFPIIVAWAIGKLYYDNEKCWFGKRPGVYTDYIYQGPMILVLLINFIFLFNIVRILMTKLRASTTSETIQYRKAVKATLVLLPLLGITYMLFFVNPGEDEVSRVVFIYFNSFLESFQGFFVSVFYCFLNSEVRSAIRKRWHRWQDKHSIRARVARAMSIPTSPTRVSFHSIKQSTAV
Put plainly: Binding affinity for recombinant human CRF1 receptor.
Take `CCCN(CCOC)c1cc(C)nc2c(-c3ncc(Cl)cc3Cl)c(C)nn12`: the Ki came to 3.2 nM. The same measure, in the same setting: as for `CCCCN(CCC)c1cc(C)nc2c(-c3ncc(C(F)(F)F)cc3Cl)c(C)nn12`, the figure is 1.2 nM.

`CCCN(CCC)c1cc(C)nc2c(-c3ncc(Cl)cc3C)c(C)nn12`: the Ki is 6.7 nM. On the same count and under the same terms, as for `CCCN(CCC)c1cc(C)nc2c(-c3ncc(N=O)cc3C)c(C)nn12`, the figure is 100 nM; as for `CCCN(CCC)c1cc(C)nc2c(-c3ncc(C)cc3N=O)c(C)nn12`, greater than 10000 nM; as for `CCCN(CCC)c1cc(C)nc2c(-c3ncc(NC)cc3C)c(C)nn12`, 40 nM.

On to `CCCN(CCC)c1cc(C)nc2c(-c3ncc(O)cc3C)c(C)nn12`, for which the Ki worked out at 530 nM. Consider `CCCN(CCC)c1cc(C)nc2c(-c3ncc(I)cc3C)c(C)nn12`, for which the Ki turned out to be 6.6 nM. Still for that read-out and setting: the same measure for `CCCN(CCC)c1cc(C)nc2c(-c3ncc(C)cc3[N+](=O)[O-])c(C)nn12`: 14 nM; for `CCCN(CCC)c1cc(C)nc2c(-c3ncc(N)cc3C)c(C)nn12`: 85 nM. Same read-out and setting: as for `CCCN(CCC)c1cc(C)nc2c(-c3ncc(OC)cc3C)c(C)nn12`, the figure is 10 nM; as for `CCCN(CCC)c1cc(C)nc2c(-c3ncc(C)cc3O)c(C)nn12`, greater than 10000 nM; as for `CCCN(CCC)c1cc(C)nc2c(-c3ncc(C)cc3N(C)C)c(C)nn12`, 23 nM. On the same count and under the same terms, as for `CCCCN(CCCC)c1cc(C)nc2c(-c3ncc(C(F)(F)F)cc3Cl)c(C)nn12`, the figure is 1.1 nM; as for `CCCN(CCC)c1cc(C)nc2c(-c3ncc([N+](=O)[O-])cc3C)c(C)nn12`, 9.1 nM; as for `CCCN(CCC)c1cc(C)nc2c(-c3ncc(C)cc3OC)c(C)nn12`, 25 nM.

For the compound `CCCN(CCC)c1cc(C)nc2c(-c3ncc(N(C)C)cc3C)c(C)nn12`, the inhibition constant (Ki) came out at 10 nM. For `CCCN(CCC)c1cc(C)nc2c(-c3ncc(Cl)cc3Cl)c(C)nn12`, the Ki worked out at 3.2 nM. Same read-out and setting: the same measure for `CCCN(CCC)c1cc(C)nc2c(-c3ncc(N(CC)CC)cc3C)c(C)nn12`: 13 nM; for `CCCN(CCC)c1cc(C)nc2c(-c3ncc(C)cc3NC)c(C)nn12`: 13 nM. Same read-out and setting: the same measure for `CCCN(CCC)c1cc(C)nc2c(-c3ncc(C)cc3N)c(C)nn12`: 40 nM; for `CCCN(CCC)c1cc(C)nc2c(-c3ncc(F)cc3C)c(C)nn12`: 19 nM; for `CCCN(CCC)c1cc(C)nc2c(-c3ccc(Cl)cn3)c(C)nn12`: 88 nM.

Regarding `CCCN(Cc1ccccc1)c1cc(C)nc2c(-c3ncc(C(F)(F)F)cc3Cl)c(C)nn12`, the Ki is 1.7 nM. Consider `CCCN(CC1CC1)c1cc(C)nc2c(-c3ncc(C(F)(F)F)cc3Cl)c(C)nn12`, for which the Ki came to 0.8 nM. The same measure, in the same setting: as for `COCCN(CCOC)c1cc(C)nc2c(-c3ncc(Cl)cc3Cl)c(C)nn12`, the figure is 78 nM; as for `CCCN(CCC)c1cc(C)nc2c(-c3ncccc3C)c(C)nn12`, 110 nM. Consider `CCCN(CCC)c1cc(C)nc2c(-c3ncc(C(F)(F)F)cc3Cl)c(C)nn12`, for which the Ki came to 1.2 nM. Still for that read-out and setting: as for `CCCN(CCC)c1cc(C)nc2c(-c3ncc(C)cc3Cl)c(C)nn12`, the figure is 6.2 nM; as for `CCCN(CCC)c1cc(C)nc2c(-c3ncc(N4CCCCC4)cc3C)c(C)nn12`, 17 nM. Still for that read-out and setting: the same measure for `CCCN(CC1CC1)c1cc(C)nc2c(-c3ncc(Cl)cc3Cl)c(C)nn12`: 3.9 nM.

The target in the next assay is T1, Corticotropin-releasing factor receptor 1. Put plainly: Inhibition of CRF-stimulated cAMP production in cells expressing CRF1 receptor. For orientation: Changes in cAMP serve as a functional read-out for many G protein-coupled receptors.
In turn, `CCCN(CCC)c1cc(C)nc2c(-c3ncc([N+](=O)[O-])cc3C)c(C)nn12` displayed an IC50 of 180 nM. In turn, `CCCN(CCC)c1cc(C)nc2c(-c3ncc(N(C)C)cc3C)c(C)nn12` gave an IC50 of 150 nM. Still for that read-out and setting: as for `CCCN(CCC)c1cc(C)nc2c(-c3ncc(Cl)cc3Cl)c(C)nn12`, the figure is 49 nM.
